Target: Tyrosine-protein kinase BTK (Homo sapiens, UniProt Q06187)
Test: Inhibition of BTK (unknown origin) using peptide substrate after 1 hr by HTRF assay

Sequence of Tyrosine-protein kinase BTK (Q06187 whole entry): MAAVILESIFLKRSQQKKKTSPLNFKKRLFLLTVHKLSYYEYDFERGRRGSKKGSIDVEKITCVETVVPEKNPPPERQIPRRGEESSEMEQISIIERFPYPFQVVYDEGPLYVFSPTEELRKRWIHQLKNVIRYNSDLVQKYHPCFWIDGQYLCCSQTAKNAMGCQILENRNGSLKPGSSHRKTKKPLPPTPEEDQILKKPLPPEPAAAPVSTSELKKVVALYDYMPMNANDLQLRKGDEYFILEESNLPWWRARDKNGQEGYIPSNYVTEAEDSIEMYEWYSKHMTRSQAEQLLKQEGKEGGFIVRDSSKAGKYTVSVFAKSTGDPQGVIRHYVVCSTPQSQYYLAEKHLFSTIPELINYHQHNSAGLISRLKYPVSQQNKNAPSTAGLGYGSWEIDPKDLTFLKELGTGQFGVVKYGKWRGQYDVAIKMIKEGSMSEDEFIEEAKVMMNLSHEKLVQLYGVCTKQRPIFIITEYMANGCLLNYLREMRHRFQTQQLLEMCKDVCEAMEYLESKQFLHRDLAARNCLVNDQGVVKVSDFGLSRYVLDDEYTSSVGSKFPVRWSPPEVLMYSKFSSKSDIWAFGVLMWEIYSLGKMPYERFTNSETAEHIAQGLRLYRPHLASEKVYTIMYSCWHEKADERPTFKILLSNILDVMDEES

IC50 [µM] | Compound
0.1 to 1 | CC#CC(=O)N1CCC[C@@H](n2nc(-c3ccc(C(=O)Nc4ccccn4)cc3)c3cnccc32)C1
0.01 to 0.1 | C=CC(=O)N1CCC[C@@H](n2nc(-c3ccc(Oc4cccc(Cl)c4)cc3)c3cnccc32)C1
≤ 0.01 | C=CC(=O)N1CCC[C@H](n2nc3ccncc3c2-c2ccc(Oc3cccc(Cl)c3Cl)cc2)C1
≤ 0.01 | COc1cccc(Oc2ccc(-c3nn([C@@H]4CCCN(C(=O)OC(C)(C)C)C4)c4c(OC)cncc34)cc2)c1F
1 to 10 | C=CC(=O)N1CC[C@@H](n2nc(-c3ccc(Oc4cccc(OC)c4F)cc3)c3c2CCN(C(C)=O)C3)C1
≤ 0.01 | C=CC(=O)N1CC[C@H](n2nc3ccncc3c2-c2ccc(Oc3cccc(Cl)c3Cl)cc2)C1
0.1 to 1 | C=CC(=O)N1CCC[C@@H](n2nc(-c3ccc(Oc4cccc(OC)c4F)cc3)c3cncc(OC)c32)C1
≥ 10 | O=C(Nc1ccc(-c2nn(C3CCC(C(=O)O)CC3)c3ccncc23)cc1)c1ccccc1 (configuration not stated)
0.01 to 0.1 | C=CC(=O)N1CC[C@@H](n2nc(-c3ccc(Oc4cccc(OC)c4C)cc3)c3cnccc32)C1
≤ 0.01 | C=CC(=O)N1CC[C@@H](n2nc(-c3ccc(Sc4cccc(F)c4)cc3)c3cnccc32)C1
≤ 0.01 | C=CC(=O)N1CC[C@@H](n2nc(-c3ccc(Oc4cccc(OC)c4Cl)cc3)c3cnccc32)C1
≤ 0.01 | C=CC(=O)N1CCC[C@@H](n2nc(-c3ccc(Oc4ccccc4)cc3)c3cnccc32)C1

Reference: ChEMBL document CHEMBL4190358, “Bruton's Tyrosine Kinase Inhibitors for the Treatment of Autoimmune Diseases and Cancers” (ACS Med Chem Lett, 2017)
